31 compounds from US20080221361A1, “Ionic Liquids” (BIONIQS LIMITED, priority 2005, published 2008) can be followed below.

What all share (format): physicochemical
What all share (conditions): product dried to water content between about 0.2 and 1% w/w

The nature of series [1]: Viscosity, AND SV10 vibrational viscometer. How it is done: (§1) Where the starting materials were both liquids, no solvent was used for the synthesis. Viscosities were measured using an AND™ SV10 vibrational viscometer. Refractive indices were obtained using a Mettler Toledo Refracto™ 30 portable refractometer. Densities were measured simply by determining the mass of a measured volume of the liquid. All products were dried prior to characterisation, to a water content of between about 0.2 and 1% w/w.

Series [2] in a line: Refractive index, Mettler Toledo Refracto 30 portable refractometer. How it is done:
as §1

The nature of series [3]: Density, mass of a measured volume of the liquid. How it is done: as §1

For the compound `CCCCCCCC(=O)O.CCCCNCCO` [N-butylethanolammonium octanoate], the “Viscosity at 25° C. (centipoise) (error ± ~5%)” value (shortened to “Viscosity … (error ± ~5%)”) in series [1] amounted to 388 centipoise. The “Refractive index (error ± ~2%)” value in series [2] is recorded as 1.456.
Take `CC(=O)O.CCN(CC)CCO` [N,N-diethylethanolammonium acetate]: the “Viscosity … (error ± ~5%)” value in series [1] is 55 centipoise. Also, in series [2], the “Refractive index (error ± ~2%)” value was 1.453. Further, the “Density (g/cm^3) (error ± ~2%)” value in series [3] was found to be 1.00 g/mL.
Regarding “N-methyl-bis(2-methoxyethyl)ammonium octanoate”, in series [2], the “Refractive index (error ± ~2%)” value is on record as 1.431.
Regarding `CCC(=O)O.CN(C)CCCO` [N,N-dimethylpropanolammonium propionate], the “Viscosity … (error ± ~5%)” value in series [1] turned out to be 52 centipoise. Besides, the “Refractive index (error ± ~2%)” value in series [2] is reported as 1.441. The “Density (g/cm^3) (error ± ~2%)” value in series [3] was determined as 0.99 g/mL.
Regarding `CC(=O)O.CCCNCCO` [N-propylethanolammonium acetate], in series [1], the “Viscosity … (error ± ~5%)” value worked out at 1310 centipoise. Besides, in series [2], the “Refractive index (error ± ~2%)” value worked out at 1.459. Further, the “Density (g/cm^3) (error ± ~2%)” value in series [3] came to 1.04 g/mL.
`CCS(=O)(=O)O.COCCN(C)C` [N,N-dimethyl-2-methoxyethylammonium ethanesulphonate]: in series [2], the “Refractive index (error ± ~2%)” value turned out to be 1.449.
For the compound `CC(=O)O.CCCCNCCO` [N-butylethanolammonium acetate], the “Viscosity … (error ± ~5%)” value in series [1] is given as 365 centipoise. The “Refractive index (error ± ~2%)” value in series [2] amounted to 1.455. The “Density (g/cm^3) (error ± ~2%)” value in series [3] was 1.04 g/mL.
Turning to `COCCCN.O=C(O)CO` [3-methoxypropylammonium glycolate], the “Viscosity … (error ± ~5%)” value in series [1] was determined as 2670 centipoise. In series [2], the “Refractive index (error ± ~2%)” value is 1.470. Moreover, the “Density (g/cm^3) (error ± ~2%)” value in series [3] worked out at 1.17 g/mL.
For `CCN(CC)CCO.O=CO` [N,N-diethylethanolammonium formate], in that order: 395 centipoise, 1.462 and 1.04 g/mL.
`COCCN(C)C.O=C(O)CO` [N,N-dimethyl-2-methoxyethylammonium glycolate]: in series [2], the “Refractive index (error ± ~2%)” value came to 1.459.
`CCC(=O)O.CCN(CC)CCO` [N,N-diethylethanolammonium propionate]: in series [1], the “Viscosity … (error ± ~5%)” value was 42 centipoise. The “Refractive index (error ± ~2%)” value in series [2] is 1.450. Moreover, the “Density (g/cm^3) (error ± ~2%)” value in series [3] was 0.98 g/mL.
As to `COCCN(C)C.NS(=O)(=O)O` [N,N-dimethyl-2-methoxyethylammonium sulphamate], the “Refractive index (error ± ~2%)” value in series [2] stood at 1.472.
For the compound `CC(=O)O.CN(C)CCCO` [N,N-dimethylpropanolammonium acetate], in series [1], the “Viscosity … (error ± ~5%)” value is 77 centipoise. For the same compound, the “Refractive index (error ± ~2%)” value in series [2] was 1.451. Moreover, the “Density (g/cm^3) (error ± ~2%)” value in series [3] turned out to be 1.03 g/mL.
With `COCCN(C)C.CS(=O)(=O)O` [N,N-dimethyl-2-methoxyethylammonium methanesulphonate], the “Refractive index (error ± ~2%)” value in series [2] is 1.449.
In the case of `CC(=O)O.CN(C)CCOCCO` [N,N-dimethyl-N-[(2-hydroxyethoxy)ethyl]ammonium acetate], the “Viscosity … (error ± ~5%)” value in series [1] is listed as 48 centipoise. Moreover, the “Refractive index (error ± ~2%)” value in series [2] amounted to 1.45. Moreover, the “Density (g/cm^3) (error ± ~2%)” value in series [3] came out at 1.05 g/mL.
Regarding “N,N-dimethyl-2-methoxyethylammonium octanoate”, the “Viscosity … (error ± ~5%)” value in series [1] is on record as 13.5 centipoise. The “Refractive index (error ± ~2%)” value in series [2] was 1.429. Besides, the “Density (g/cm^3) (error ± ~2%)” value in series [3] was found to be 0.93 g/mL.
As for `CCCCNCCO.O=CO` [N-butylethanolammonium formate], the “Viscosity … (error ± ~5%)” value in series [1] came out at 376 centipoise. Also, the “Refractive index (error ± ~2%)” value in series [2] stood at 1.462. The “Density (g/cm^3) (error ± ~2%)” value in series [3] turned out to be 1.04 g/mL.
As for `CC(=O)O.COCCCN` [3-methoxypropylammonium acetate], in series [1], the “Viscosity … (error ± ~5%)” value turned out to be 640 centipoise. For the same compound, in series [2], the “Refractive index (error ± ~2%)” value stood at 1.447. Besides, the “Density (g/cm^3) (error ± ~2%)” value in series [3] is 1.04 g/mL.
In the case of `COCCN(C)CCOC.O=C(O)CO` [N-methyl-bis(2-methoxyethyl)ammonium glycolate], the “Refractive index (error ± ~2%)” value in series [2] came to 1.452.
Turning to `CCCCNCCO.O=C(O)CO` [N-butylethanolammonium glycolate], the “Viscosity … (error ± ~5%)” value in series [1] was 800 centipoise. Moreover, in series [2], the “Refractive index (error ± ~2%)” value is 1.464. Also, the “Density (g/cm^3) (error ± ~2%)” value in series [3] is 1.08 g/mL.
Take `CCC(=O)O.CCCNCCO` [N-propylethanolammonium propionate]: the “Viscosity … (error ± ~5%)” value in series [1] is 483 centipoise. The “Refractive index (error ± ~2%)” value in series [2] was 1.456. The “Density (g/cm^3) (error ± ~2%)” value in series [3] was found to be 1.02 g/mL.
`CC(=O)O.CCN(CC)CC(O)CO` (stereo not drawn) [N,N-diethylpropane-2,3-diolammonium acetate]: the “Viscosity … (error ± ~5%)” value in series [1] worked out at 3100 centipoise.
With `CCN(CC)CCO.O=C(O)CO` [N,N-diethylethanolammonium glycolate], the “Viscosity … (error ± ~5%)” value in series [1] is reported as 740 centipoise. Also, in series [2], the “Refractive index (error ± ~2%)” value was determined as 1.466. Also, the “Density (g/cm^3) (error ± ~2%)” value in series [3] was found to be 1.11 g/mL.
Consider `CCC(=O)O.CCCCNCCO` [N-butylethanolammonium propionate], for which the “Refractive index (error ± ~2%)” value in series [2] is listed as 1.457. The “Density (g/cm^3) (error ± ~2%)” value in series [3] worked out at 1.00 g/mL.
For the compound `CCC(=O)O.COCCN(C)C` [N,N-dimethyl-2-methoxyethylammonium propionate], the “Refractive index (error ± ~2%)” value in series [2] was found to be 1.422.
For `CC(=O)O.COCCN(C)CCOC` [N-methyl-bis(2-methoxyethyl)ammonium acetate], the “Refractive index (error ± ~2%)” value in series [2] stood at 1.423.
As for `CN(C)CCCO.O=CO` [N,N-dimethylpropanolammonium formate], the “Viscosity … (error ± ~5%)” value in series [1] is on record as 132 centipoise. Also, the “Refractive index (error ± ~2%)” value in series [2] came out at 1.460. Further, the “Density (g/cm^3) (error ± ~2%)” value in series [3] was 1.07 g/mL.
On to `CCCCCCCC(=O)O.CCN(CC)CCO` [N,N-diethylethanolammonium octanoate], for which, in series [1], the “Viscosity … (error ± ~5%)” value was determined as 46 centipoise. In addition, in series [2], the “Refractive index (error ± ~2%)” value is 1.451. Moreover, the “Density (g/cm^3) (error ± ~2%)” value in series [3] was 0.96 g/mL.
Consider `CC(=O)O.COCCN(C)C` [N,N-dimethyl-2-methoxyethylammonium acetate], for which the “Refractive index (error ± ~2%)” value in series [2] worked out at 1.426.
In the case of `CCC(=O)O.COCCN(C)CCOC` [N-methyl-bis(2-methoxyethyl)ammonium propionate], the “Refractive index (error ± ~2%)” value in series [2] stood at 1.423.
As for `CN(C)CCCO.O=C(O)CO` [N,N-dimethylpropanolammonium glycolate], the “Viscosity … (error ± ~5%)” value in series [1] turned out to be 3320 centipoise. The “Refractive index (error ± ~2%)” value in series [2] was 1.472. In series [3], the “Density (g/cm^3) (error ± ~2%)” value was 1.14 g/mL.
